From ChEMBL document CHEMBL1201862, “PubChem BioAssay data set” (2004) come the findings set out here.

Test [1] in a line: alpha-synuclein stem-loop luciferase translation blockers – H4 neuroglioma cells, luminescence, confirmation (AID 1988). The class given is functional, cell-based.
Test [2] is described as follows: alpha-synuclein stem-loop translation blockers – luminescence, H4 neuroglioblastoma cells, dose confirmation, confirmation (AID 2454).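 Also: H4 neuroglioblastoma cells carrying an alpha-synuclein 5'UTR luciferase reporter; potency for inhibition of the luciferase signal.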 The class given is functional, cell-based.
Test [3] can be described thus: A549 cell cytotoxicity, dose response, cytotoxicity control, plate reader, cherry-pick, antagonist series (AID 743412). The class given is functional, cell-based.
The nature of test [4]: blockade of melanocortin 4 receptor signaling – cell-based, plate reader, cherry pick, counter-screen for LGR2 antagonist project, dose response (AID 743444).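 Also: transfected HEK 293 cells stimulated with alpha-MSH peptide; potency of inhibitors of the alpha-MSH evoked signal.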 The class given is functional.
The nature of test [5]: Luminescence-based counterscreen assay for KLF5 inhibitors: dose response cell-based high throughput screening assay to identify cytotoxic compounds using the IEC-6 intestinal epithelial cell line. [Related pubchem assays: 1700 (Primary screen.), 1834 (Confirmation screen.), 1858 (Summary AID.), 1905 (Counterscreen.)]. The test is classed as functional. A general note: Counterscreens check selectivity or assay interference.

The nature of test [6]: luciferase reporter signal suppression in cells – H4 neuroglioma cells, luminescence, dose response (AID 1990). The class given is functional, cell-based. (A reporter such as luciferase makes a cellular process visible.)
Test [7] is described as follows: blockers of HIV-1 envelope-mediated cell-cell fusion – cherry-pick, dose response (AID 652057). The test is classed as functional, cell-based.
Test [8] concerns the target FAD-linked sulfhydryl oxidase ALR (Homo sapiens, UniProt P55789). Briefly: ALR-catalysed DTT oxidation blockers – biochemical, H2O2 detection, luminescence, cherry-pick, dose response (AID 493248).
The target in test [9] is Paired box protein Pax-8 (Homo sapiens, UniProt Q06710). The experiment in a line: PAX8 transcriptional activity inhibition in RMG-I – RMG-I cells, luciferase, cherry-pick, dose response (AID 687027).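 Also: luciferase reporter driven by Pax8 target thyroperoxidase promoter measured by SteadyGlo luminescence.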 The class given is functional, cell-based.
Chain of Paired box protein Pax-8 (Q06710 whole entry, the tested form may be a part): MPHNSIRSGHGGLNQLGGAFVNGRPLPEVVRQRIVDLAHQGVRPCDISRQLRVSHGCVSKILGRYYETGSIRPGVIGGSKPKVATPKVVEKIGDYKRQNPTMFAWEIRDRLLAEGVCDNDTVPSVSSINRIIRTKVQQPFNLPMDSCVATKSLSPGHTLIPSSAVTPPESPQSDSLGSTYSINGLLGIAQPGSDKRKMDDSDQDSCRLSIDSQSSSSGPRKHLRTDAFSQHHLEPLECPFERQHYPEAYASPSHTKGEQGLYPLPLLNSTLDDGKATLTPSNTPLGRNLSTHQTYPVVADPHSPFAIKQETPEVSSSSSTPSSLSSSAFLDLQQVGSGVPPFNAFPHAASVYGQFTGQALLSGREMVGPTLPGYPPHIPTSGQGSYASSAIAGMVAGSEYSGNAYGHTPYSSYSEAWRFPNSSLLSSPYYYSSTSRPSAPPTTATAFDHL
Test [10] can be described thus: luciferase reporter signal reduction – luminescence, H4-C neuroglioblastoma cells, dose response (AID 2458).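 Also: H4 neuroglioblastoma cells stably carrying a luciferase reporter gene fusion.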 The test is classed as functional, cell-based.
Test [11] can be described thus: off-target signal loss in HeLa-CEM21 co-culture – HeLa F-luc CTL cells, cherry-picked, counter-screen for HIV-1 Env fusion inhibitor project, dose response (AID 652040).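 Also: potency for signal decrease marking cytotoxic or nonspecific inhibition.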 The class given is functional, cell-based.
Test [12] is described as follows: blockers of HIV-1 ZM109 envelope-driven cell-cell fusion – HeLa effector, CEM target cells, luciferase, cherry-pick, dose response (AID 652058).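 Also: luciferase signal from HIV-1 Env mediated cell-cell fusion of effector and target cells.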 The class given is functional, cell-based.
Test [13] is described as follows: blockers of bursicon-stimulated LGR2 cAMP reporter – cell-based, HEK293, CRE-luciferase reporter, cherry pick, set 2, dose response (AID 743343).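 Also: transfected cells were stimulated with diluted bursicon conditioned medium after compound addition.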 The class given is functional.
In test [14] the target is T1, Heat shock factor protein 1 (Mus musculus, UniProt P38532).
T1 sequence (P38532 whole entry): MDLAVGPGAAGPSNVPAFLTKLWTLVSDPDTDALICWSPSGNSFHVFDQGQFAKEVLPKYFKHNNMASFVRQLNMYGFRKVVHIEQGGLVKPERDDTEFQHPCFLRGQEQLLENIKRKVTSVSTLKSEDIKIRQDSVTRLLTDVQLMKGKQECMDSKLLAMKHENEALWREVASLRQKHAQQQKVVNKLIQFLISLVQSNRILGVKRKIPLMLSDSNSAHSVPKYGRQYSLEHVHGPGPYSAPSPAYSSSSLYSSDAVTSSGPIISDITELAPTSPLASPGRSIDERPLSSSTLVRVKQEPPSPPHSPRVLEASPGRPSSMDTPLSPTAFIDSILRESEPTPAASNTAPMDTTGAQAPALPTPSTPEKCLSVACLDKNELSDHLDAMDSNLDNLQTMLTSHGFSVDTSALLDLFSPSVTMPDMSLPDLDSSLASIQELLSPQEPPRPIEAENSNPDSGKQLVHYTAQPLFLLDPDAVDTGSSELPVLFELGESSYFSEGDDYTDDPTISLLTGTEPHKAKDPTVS
Briefly: decrease of HSF1-responsive luciferase luminescence – cell-based, NIH3T3, dose retest, confirmation (AID 2382).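 Also: NIH3T3 fibroblasts with HSF1-driven luciferase reporter stressed by proteasome inhibitor MG132; luminescence from HSF1-driven luciferase expression after 8 hours of MG132 stress.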 The test is classed as functional.

Test [15] is described as follows: viability loss in HEK293 cells – cell-based, plate reader, cherry-picked samples, cytotoxicity control, dose response (AID 743446). The test is classed as functional.
Test [16] is described as follows: HIV-1 AD8 envelope cell-cell fusion blockers – cherry-pick, dose response (AID 652062).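 Also: luciferase signal from cell-cell fusion driven by HIV-1 clade B AD8 Env; potency is for inhibitors of fusion seen as a drop in luminescence.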 The test is classed as functional, cell-based.
Test [17] in a line: cells. The class given is functional, cell-based.
The nature of test [18]: Luminescence Cell-Based Dose Response HTS to Identify Inhibitors of 5'UTR Stem-Loop Driven Prion Protein mRNA Translation in H4 Neuroglioblastoma Cells. [Related pubchem assays: 1827 (Project Summary), 1813 (Primary HTS)]. The class given is functional.
Test [19] deals with Cytochrome P450 2C9 (Homo sapiens, UniProt P11712). The conditions noted are these: Potency.
Chain of Cytochrome P450 2C9 (P11712 whole entry): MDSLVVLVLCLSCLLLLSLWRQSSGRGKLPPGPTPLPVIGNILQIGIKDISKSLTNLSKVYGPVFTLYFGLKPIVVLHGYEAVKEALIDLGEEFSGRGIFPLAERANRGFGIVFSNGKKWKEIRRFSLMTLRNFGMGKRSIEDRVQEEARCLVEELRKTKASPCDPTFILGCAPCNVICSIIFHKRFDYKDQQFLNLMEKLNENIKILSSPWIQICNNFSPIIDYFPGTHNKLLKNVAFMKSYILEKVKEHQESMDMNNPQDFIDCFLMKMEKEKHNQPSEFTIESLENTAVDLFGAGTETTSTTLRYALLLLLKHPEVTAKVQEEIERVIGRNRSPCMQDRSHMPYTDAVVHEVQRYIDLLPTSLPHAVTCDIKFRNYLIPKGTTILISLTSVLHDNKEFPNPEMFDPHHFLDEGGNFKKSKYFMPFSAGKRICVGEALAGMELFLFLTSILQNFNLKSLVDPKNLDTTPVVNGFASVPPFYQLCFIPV
In test [20] the target is Cytochrome P450 3A4 (Homo sapiens, UniProt P08684). The conditions noted are these: Potency.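 Also: confirmatory qHTS run detecting inhibitors and substrates of CYP3A4.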
Chain of Cytochrome P450 3A4 (P08684 whole entry): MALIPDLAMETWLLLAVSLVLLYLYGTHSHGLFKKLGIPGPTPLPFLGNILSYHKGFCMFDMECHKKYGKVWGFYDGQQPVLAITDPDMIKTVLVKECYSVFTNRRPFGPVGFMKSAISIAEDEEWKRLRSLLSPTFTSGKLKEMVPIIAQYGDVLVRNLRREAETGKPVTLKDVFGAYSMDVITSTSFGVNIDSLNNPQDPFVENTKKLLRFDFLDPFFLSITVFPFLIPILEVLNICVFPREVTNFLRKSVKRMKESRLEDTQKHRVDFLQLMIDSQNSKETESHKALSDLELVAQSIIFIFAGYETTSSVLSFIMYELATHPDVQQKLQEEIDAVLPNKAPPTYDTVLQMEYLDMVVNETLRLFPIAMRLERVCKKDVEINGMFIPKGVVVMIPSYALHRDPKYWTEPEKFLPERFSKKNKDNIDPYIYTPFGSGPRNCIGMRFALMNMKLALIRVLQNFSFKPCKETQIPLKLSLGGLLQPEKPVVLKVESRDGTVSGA
Test [21] deals with Epstein-Barr nuclear antigen 1 (Epstein-Barr virus (strain B95-8) (HHV-4) (Human herpesvirus 4), UniProt P03211). Briefly: inhibition of EBV nuclear antigen 1 DNA binding – biochemical, fluorescence polarization, 1536-well, dose response (AID 2381).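 Also: fluorescence polarization of a Cy5 DNA probe bound by EBNA-1 protein.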 Also noted: species or system human gammaherpesvirus 4. (In general: In fluorescence polarisation assays a small probe gives low polarisation when free and higher when bound to something large.)
Chain of Epstein-Barr nuclear antigen 1 (P03211 whole entry): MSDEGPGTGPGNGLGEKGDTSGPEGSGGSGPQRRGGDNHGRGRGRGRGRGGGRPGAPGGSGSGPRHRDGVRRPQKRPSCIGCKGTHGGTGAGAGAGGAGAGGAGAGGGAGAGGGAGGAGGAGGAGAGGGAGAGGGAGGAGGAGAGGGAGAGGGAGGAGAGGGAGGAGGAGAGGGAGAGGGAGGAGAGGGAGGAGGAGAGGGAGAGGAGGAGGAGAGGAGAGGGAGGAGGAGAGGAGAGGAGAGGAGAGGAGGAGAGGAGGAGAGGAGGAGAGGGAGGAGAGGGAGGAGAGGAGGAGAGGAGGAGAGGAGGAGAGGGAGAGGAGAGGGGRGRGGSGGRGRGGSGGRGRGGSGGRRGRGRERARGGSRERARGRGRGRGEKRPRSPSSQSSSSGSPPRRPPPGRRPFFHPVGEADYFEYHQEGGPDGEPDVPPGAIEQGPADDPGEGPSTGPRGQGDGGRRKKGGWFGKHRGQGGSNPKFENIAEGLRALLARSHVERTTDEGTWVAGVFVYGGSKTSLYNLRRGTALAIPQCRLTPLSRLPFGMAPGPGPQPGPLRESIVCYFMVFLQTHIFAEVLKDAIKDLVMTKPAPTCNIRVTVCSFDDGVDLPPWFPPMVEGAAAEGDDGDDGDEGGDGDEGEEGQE

Test [22] concerns the target Lytic switch protein BZLF1 (Epstein-Barr virus (strain B95-8) (HHV-4) (Human herpesvirus 4), UniProt P03206). Briefly: inhibition of BZLF1 ZTA DNA binding – biochemical, fluorescence polarization, Epstein-Barr virus, 1536-well, counter-screen for EBNA-1 inhibitor project, dose response (AID 2377).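 Also: fluorescence polarization of Cy5-labelled ZRE DNA probe bound by purified Zta.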 Also noted: species or system human gammaherpesvirus 4.
Test [23] concerns the target T2, Alkaline phosphatase, tissue-nonspecific isozyme (Homo sapiens, UniProt P05186).
T2 sequence (P05186 whole entry): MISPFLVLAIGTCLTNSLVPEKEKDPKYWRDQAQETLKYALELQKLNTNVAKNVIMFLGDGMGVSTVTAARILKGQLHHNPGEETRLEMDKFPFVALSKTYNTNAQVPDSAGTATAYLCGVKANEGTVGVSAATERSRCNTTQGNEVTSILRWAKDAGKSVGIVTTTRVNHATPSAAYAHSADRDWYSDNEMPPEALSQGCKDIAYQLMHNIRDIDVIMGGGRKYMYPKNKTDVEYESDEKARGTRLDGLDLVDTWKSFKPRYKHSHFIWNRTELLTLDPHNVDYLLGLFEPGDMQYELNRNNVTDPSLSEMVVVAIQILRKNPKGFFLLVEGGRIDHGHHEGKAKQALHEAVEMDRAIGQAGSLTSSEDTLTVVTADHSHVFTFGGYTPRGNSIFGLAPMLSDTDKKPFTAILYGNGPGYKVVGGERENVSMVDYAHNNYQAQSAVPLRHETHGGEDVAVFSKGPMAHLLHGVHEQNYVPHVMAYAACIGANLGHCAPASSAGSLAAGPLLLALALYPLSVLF

What is called EC50 is the midpoint of the concentration-response curve. What is called AC50 is the concentration giving half of the maximal activity seen. The term IC50 denotes the concentration needed to halve the response being measured. A high value points to a need for much substance.

Molecules are shown by their SMILES. The source made the active and inactive calls. A value given as a limit tells only on which side of the number the result lay.

Chain of FAD-linked sulfhydryl oxidase ALR (P55789 whole entry): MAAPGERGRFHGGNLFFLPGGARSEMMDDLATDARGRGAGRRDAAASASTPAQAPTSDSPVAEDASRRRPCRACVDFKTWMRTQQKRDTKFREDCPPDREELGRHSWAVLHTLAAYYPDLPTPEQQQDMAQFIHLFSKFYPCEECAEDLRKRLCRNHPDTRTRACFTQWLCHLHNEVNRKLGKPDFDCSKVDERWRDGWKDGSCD
Chain of Lytic switch protein BZLF1 (P03206 whole entry): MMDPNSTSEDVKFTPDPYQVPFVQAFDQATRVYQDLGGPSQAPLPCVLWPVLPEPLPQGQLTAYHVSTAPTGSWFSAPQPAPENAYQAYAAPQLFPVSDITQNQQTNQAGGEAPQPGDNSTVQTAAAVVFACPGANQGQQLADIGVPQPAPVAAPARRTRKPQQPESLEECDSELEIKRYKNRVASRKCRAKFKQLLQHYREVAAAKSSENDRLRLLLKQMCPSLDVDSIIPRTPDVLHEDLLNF

As to `O=C(O)c1cccc(COc2ccc3c(c2)CCC3)c1`, the EC50 in [1] is < 100 nM (active); in test [2] it was 197 nM (active); in test [6] it was 212 nM (active); in [10], 233 nM (active); in test [14], 376 nM (inconclusive); in test [17], 538 nM (active). Besides, the EC50 in test [18] was < 100 nM (active). For the same compound, the AC50 was > 52000 nM (inactive) in test [3]; 383 nM (active) in test [4]; 684 nM (active) in test [7]; 1370 nM (active) in test [8]; 3790 nM (active) in [9]; 1680 nM (active) in test [11]. Further, the AC50 in test [12] was 5090 nM (active); in test [13], 326 nM (active); in test [15], > 52000 nM (inactive); in test [16], 1470 nM (active). For the same compound, in [5], the concentration for half-maximal inhibition (IC50) is > 39800 nM (not active).
On to `CC1CCC2C(=O)N3C(CCC(C)C3c3ccccc3Br)C(=O)N2C1c1ccc(C#CCN(C)C)cc1` (centres undefined), for which the results for the AC50 in [19] and in [20] were 3980 nM (inconclusive) and 3160 nM (inconclusive), respectively.
Turning to `O=C(NCc1ccc2c(c1)OCO2)C1CCC(CNS(=O)(=O)c2ccc(Cl)cc2)CC1` (centres undefined), the IC50 was > 148000 nM (not active) in test [21] and > 111000 nM (not active) in test [22].
As to `CC(C)[C@@H](CC(=O)N[C@@H]1CCCC[C@H]1C(=O)N[C@H](CC(=O)N[C@@H](CCC(=O)O)CC(=O)O)Cc1c[nH]c2ccccc12)NC(=O)C[C@H](CO)NC(=O)[C@@H]1CNCC[C@H]1N`, the AC50 in test [19] was 31600 nM (inconclusive).
In the case of `Cc1ccc(OCC(=O)Nc2ccc3c(c2)OCCO3)cc1C`, in test [23], the EC50 is > 100000 nM (not active).
